# In patent publication US20070112032A1, “Prevention and/or reduction of photoreceptor degeneration with retinoids” (priority 2003, published 2007):
# Key:
# [1] = tested on: photoreceptor layer of rats exposed to blue light; test: Blue light (480 nm) photoreceptor damage in rats, retinal structure by histology; assay type: in vivo, Sprague-Dawley rats; design: key to Protective Activity: * means a protective effect of the photoreceptor layer to damage from blue light radiation.; **: Greater effectiveness is shown by increasing number of *'s.; ***: Greater effectiveness is shown by increasing number of *'s.; X means no such protective effect; conditions: for thickness of the photoreceptor layer: FIG. 2, oral 5 days before blue light, tazarotene 3 mg/kg/day, Compound A 10 mg/kg/day, compared with vehicle and antagonists; for thickness of the photoreceptor layer / Protective Activity: rats; for Protective Activity: oral dosing 5 days, last dose 2 hours before 8 hours blue light (480 nm, 12000 LUX)
# Procedure: (§1) Adult male abino Sprague-Dawley rats (weight 400±30 g) were used for the following examples. After 18 hours of dark adaptation, animals were housed in specially designed acrylic cages and exposed to high intensity (12000 LUX) of blue fluorescent light (480 nm) for 8 hours. The light intensity was measured with a digital light meter. Each animal was housed separately. The room was maintained at 73° F. throughout the experiment. Animals were orally dosed with the appropriate retinoid or positive control, i.e. brimonidine, for 5 days with the last dose administered 2 hours before blue-light exposure. After the light exposure, the animals were kept in the dark room and recovered for an additional 5 days. Retinal function was evaluated with flash ERG analysis. Retinal structure was assessed by histology.
# The following retinoids were evaluated for preventing damage to the photoreceptor layer of rats subjected to exposure to blue light.
# (The RAR agonist, tazarotene, is an RARβ and […] retinioid. The RXR agonist also has some RAR agonist activity.)
# In this Example, the above experiment is repeated with the RAR antagonist, which has antagonist activity at the α, β and […] retinoid receptor subtype dosed in combination with the RAR agonist and the RXR agonist.
# The following retinoid compounds were tested in the above method with the results reported as shown.
# [2] = tested on: photoreceptor layer of rats exposed to blue light; test: Blue light (480 nm) photoreceptor damage in rats, retinal function by flash ERG; assay type: in vivo, Sprague-Dawley rats; conditions: FIG. 3, ERG wave versus time, oral 5 days before blue light
# Procedure: as §1
# [3] = tested on: photoreceptors of rats and mice; conditions: Sparrow PNAS 2003, Sieving PNAS 2001; cited from earlier work
Structure (SMILES),Protective Activity [1],also measured
"CC(/C=C/[C@@H]1C[C@]1(C)c1ccc2c(c1)C(C)(C)CCC2(C)C)=C\C(=O)O [Compound A, 3,7-Dimethyl-6(S),7(S)-methano-7-[1,1,4,4-tetramethyl-1,2,3,4-tetrahydronaphth-7-yl]-2E, 4E-heptadienoic acid]",**,thickness of the photoreceptor layer [1]: greater than the photoreceptor layers of the animals dosed with the RAR or RXR antagonists; protective effect to the photoreceptor layer measured by ERG [2]: show a protective effect
"CCCOc1c(\C(CC)=C(F)/C=C/C(C)=C/C(=O)O)cc(C(C)C)cc1C(C)C [Compound B, (2E,4E,6E)-7-(3,5-Diisopropyl-2-propoxy-phenyl)-6-fluoro-3-methyl-nona-2,4,6-trienoic acid]",X,–
CCc1ccc(C2=CC(C)(C)Sc3ccc(C#Cc4ccc(C(=O)O)cc4)cc32)cc1 [Compound C],X,"effect of RAR antagonist on effectiveness of RAR agonist and RXR agonist ([1]; FIG. 5, RAR antagonist dosed in combination with the RAR agonist and the RXR agonist): severely diminishes the effectiveness of both the RAR agonist and the RXR agonists"
"Cc1ccc(C2CC(C)(C)Oc3c(Br)cc(NC(=O)c4ccc(C(=O)O)c(F)c4)cc32)cc1 (centres unmarked) [Compound D, 2-Fluoro-4-[6′-(2″,2″-dimethyl-4″-tolylchromanyl)-8'-bromo]carbamoyl benzoic acid]",X,–
"CC1(C)CCC(C)(C)c2c1cc(C(=O)Nc1cc(F)c(C(=O)O)c(F)c1)c(O)c2Cl [Compound E, 4-[(4-Chloro-3-hydroxy-5,5,8,8-tetramethyl-5,6,7,8-tetrahydro-naphthalene-2-carbonyl)-amino]-2,6-difluoro-benzoic acid]",**,–
"CCC[C@]1(c2ccc3c(c2)C(C)(C)CCC3(C)C)C[C@H]1/C=C/C(C)=C/C(=O)O [Compound F, 3-Methyl-7-propyl-6(S),7(S)-methano-7[1,1,4,4-tetrametyl-1,2,3,4-tetrahydro-7-yl]-2(E),4(E)-heptadienoic acid]",X,–
"Brc1c(NC2=NCCN2)ccc2nccnc12 [brimonidine, reference compound]",–,thickness of the photoreceptor layer [1]: much greater than the thickness of the photoreceptor layers of the animals dosed with the vehicle alone
"CC1=C(/C=C/C(C)=C/C=C/C(C)=C\C(=O)O)C(C)(C)CCC1 [isotretinoin, 13-cis retinoic acid]",–,protection of photoreceptors from light damage [3]: can protect photoreceptors of rats and mice from light damage
